We go through six molecules from patent US20050070596A1, “Methods for treatment of inflammatory diseases using CT-3 or analogs thereof” (priority 2003, published 2005).

Series [1] has as its system tics in Tourette's syndrome. Conditions: oral; cited from earlier work.
For series [2], the system named is mouse experimental model of multiple sclerosis. Put plainly: inhibition of spasticity in a mouse experimental model of multiple sclerosis. It is filed as in vivo. Conditions: for spasticity (limb stiffness assessed by the force required to bend the limb): ***P<0.001 compared to baseline. How it is done:
FIG. 7 illustrates cannabinoid-mediated inhibition of spasticity in a mouse experimental model of multiple sclerosis^35. Compounds were injected intravenously (i.v.) and the level of THC (1 mg/kg i.v.) was matched to the THC content in a cannabis extract (obtained under UK Home Office Licence). […] Nabilone (1 mg/kg i.v.) a synthetic analogue of THC (generously supplied by Cambridge Biomedicals, Cesamet) could inhibit spasticity to maximal levels (˜45-50% inhibition). Mean change compared to baseline (n=10/group)

Series [3] deals with mouse peritoneal macrophages activated by LPS and IFNγ. Conditions: cited from earlier work.
In a further series the test system is human leukocytes. Conditions: cited from earlier work; for IFNγ synthesis: high concentrations (5-24µg/ml); for IFNγ production: low concentrations.
In the next series the test system is people with chronic pain. Conditions: oral; chronic pain (n=60), those with MS; cited from earlier work.
In series [4] the test system is levadopa-induced dyskinesia in Parkinson's disease. Conditions: in vivo; cited from earlier work.
The conditions of series [5]: in vivo; cited from earlier work.
The next series addresses CB1 receptors (Homo sapiens, UniProt P21554). Conditions: cited from earlier work.
The subject of the next series is TPA-induced erythema. Conditions: applied topically; cited from earlier work.
Another series deals with Legionella. Conditions: mouse, in vivo; cited from earlier work.
The subject of series [6] is mRNA of IL-1, IL-6 and TNFα. Conditions: BALB/C mice injected with cannabidiol; cited from earlier work.
A further series concerns the target CB2 (Homo sapiens, UniProt P34972). Conditions: cited from earlier work.
In a further series the test system is PBQ-induced writhing. Conditions: given orally at doses up to 10 mg/kg; cited from earlier work.
The subject of the next series is NMDA receptor. Conditions: cited from earlier work.
In a further series the test system is head trauma. Conditions: phase II; cited from earlier work.
Another series relates to MS patients. Conditions: within one month after initiation of treatment; cited from earlier work.

Chain of CB2 (P34972 whole entry, species assumed): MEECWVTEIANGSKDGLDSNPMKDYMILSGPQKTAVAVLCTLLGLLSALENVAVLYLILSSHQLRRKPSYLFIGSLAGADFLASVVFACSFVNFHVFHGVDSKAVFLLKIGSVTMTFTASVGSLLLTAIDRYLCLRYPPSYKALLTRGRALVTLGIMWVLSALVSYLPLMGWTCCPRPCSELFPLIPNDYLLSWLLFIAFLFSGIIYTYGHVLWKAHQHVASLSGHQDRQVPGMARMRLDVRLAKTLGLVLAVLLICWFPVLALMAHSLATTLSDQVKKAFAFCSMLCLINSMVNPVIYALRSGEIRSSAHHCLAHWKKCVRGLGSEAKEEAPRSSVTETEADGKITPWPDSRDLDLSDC
Chain of CB1 receptors (P21554 whole entry): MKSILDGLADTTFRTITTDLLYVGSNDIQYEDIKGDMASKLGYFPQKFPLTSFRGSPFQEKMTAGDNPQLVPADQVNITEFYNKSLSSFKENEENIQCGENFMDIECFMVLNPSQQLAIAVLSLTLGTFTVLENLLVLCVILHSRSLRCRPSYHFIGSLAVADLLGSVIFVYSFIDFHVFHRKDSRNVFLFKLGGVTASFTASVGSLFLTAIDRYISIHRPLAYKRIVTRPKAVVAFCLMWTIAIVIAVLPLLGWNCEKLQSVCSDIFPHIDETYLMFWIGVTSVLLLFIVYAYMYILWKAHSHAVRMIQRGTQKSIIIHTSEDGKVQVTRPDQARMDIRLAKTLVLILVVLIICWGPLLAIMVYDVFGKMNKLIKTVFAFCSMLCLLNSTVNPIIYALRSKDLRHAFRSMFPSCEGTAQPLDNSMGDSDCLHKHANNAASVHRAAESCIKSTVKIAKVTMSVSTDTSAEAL

On to `CCCCCc1cc(O)c2c(c1)OC(C)(C)[C@@H]1CCC(C)=C[C@@H]21` [THC, delta 9 tetrahydrocannabinol], for which the tics entry in series [1] was “can inhibit tics”. In addition, in [2] (THC 1 mg/kg i.v.), the “inhibition of spasticity” value is “capacity to induce maximal inhibition of spasticity”. Also, in series [3], the “nitric oxide (NO) production” value is recorded as “inhibited”. For the same molecule, in the series with human leukocytes, the IFNγ synthesis entry is on record as “completely blocked” and the IFNγ production result is listed as “increase”.

Take `CCCCCCC(C)(C)c1cc(O)c2c(c1)OC(C)(C)C1CCC(=O)CC21` (stereo not drawn) [Nabilone]: the “MS patients reporting some analgesic effect” value in the series on people with chronic pain is “six of 16”. Besides, the inhibition – broadly, the relative decrease from the control value, in per cent – at 1 mg/kg in series [2] (Mus musculus, iv, 1 mg/kg i.v., mean change compared to baseline, maximal levels) fell in the range of 45 to 50%. Further, the levadopa-induced dyskinesia result in [4] was “inhibit”.

For `CCCCCCC(C)(C)c1cc(O)c2c(c1)OC(C)(C)[C@@H]1CC=C(C(=O)O)C[C@@H]21` [ajulemic acid], the cannabimimetic effects entry in series [5] was “dose not induce cannabimimetic effects”. Also, the “direct stimulation of CB1 receptors” value at CB1 receptors is on record as “does not directly stimulate CB1 receptors to a significant extent”. For the same molecule, the “spasticity (limb stiffness assessed by the force required to bend the limb)” value is on record as “inhibits spasticity” in [2] and “anti-spastic” in series [2] (listed as Ajulemic acid).

As to `C=C(C)[C@@H]1CCC(C)=C[C@H]1c1c(O)cc(CCCCC)cc1O` [Cannabidiol], the psychoactivity entry in series [5] was “no psychotropic”. Further, the TPA-induced erythema entry in the series with TPA-induced erythema was “reduce”. In addition, the mortality result with Legionella is on record as “not affected”. Besides, in series [6], the “level of mRNA of IL-1, IL-6 and TNFα” value is “did not show significant change”. The “binding to CB2 receptor” value at CB2 is recorded as “does not bind”. For the same molecule, the PBQ-induced writhing result with PBQ-induced writhing was “inhibited”. The “nitric oxide (NO) production” value in [3] was “inhibited”. In the series on human leukocytes, the IL-1 production result is listed as “decreased”, the IL-2 secretion result is “did not affect”, the TNFα production result was “decreased” and the IFNγ synthesis entry is listed as “completely blocked”. Also, the IFNγ production result in the series on human leukocytes is “increase”.

`CCCCCCC(C)(C)c1cc(O)c2c(c1)OC(C)(C)[C@H]1CC=C(CO)C[C@H]21` [dexanabinol]: the NMDA receptor activity result with NMDA receptor is listed as “NMDA receptor antagonist”. Further, the “efficacy in head trauma” value in the series on head trauma was “some efficacy”.

B1: IFN-.gamma.: cytokine administered in attempts to alleviate the symptoms of MS (protein, UniProt P01579 24-161, looked up)
Interferon gamma: QDPYVKEAENLKKYFNAGHSDVADNGTLFLGILKNWKEESDRKIMQSQIVSFYFKLFKNFKDDQSIQKSVETIKEDMNVKFFNSNKKKRDDFEKLTNYSVTDLNVQRKAIHELIQVMAELSPAAKTGKRKRSQMLFRG
Consider B1, for which the “patients with clinical exacerbation” value in the series on MS patients is reported as 7 of 18.
